Measurements: patent publication US8211883B2, “Topical delivery of phthalocyanines” (priority 2004, dated 2012)
Marks after values point to notes of the source that are not given here.

Tests used:
[1] = system: RIF-1 (radiation-induced fibrosarcoma) tumors; assay: PDT of RIF-1 implanted tumors; format: in vivo, C3H/HeN mice; design: key to Tumor Responses at 24 hours: complete: no evidence of any tumor mass in any animal; only the scar from the photodynamic therapy was evident.; near complete: evidence of any tumor mass in four or five animals; only some tumor mass in one or two animals.; substantial: a significant tumor shrinkage occurred in all animals. In some animals the tumor response was complete, yet in others the response was not complete.; moderate: some tumor shrinkage was evident in some animals. In animals with some tumor shrinkage, scar formation was evident.; slight: some tumor decrease occurred in one or two mice; conditions: 675 nm; for Doubling Time of Initial Tumor Volume after PDT: controls 4 days
Procedure: The relative effectiveness at reducing tumor volume of selected phthalocyanine compounds at a given dosage was compared in vivo. RIF-1, i.e., radiation-induced fibrosarcoma, tumors were implanted into the backs of C3H/HeN mice. One tumor was implanted per mouse. Each of the phthalocyanine compounds listed in Table 7 was sonicated and vortexed in corn oil to produce a suspension. When the tumors reached […] in diameter and 2-3 mm in thickness, each mouse received 1 mg/kg in 0.1 mL of the corn oil, of the phthalocyanine suspension. For comparison, select mice received a conventional photosensitizer; either 5 mg/kg of chloroaluminum phthalocyanine tetrasulfonate, herein also referred to as “AlPcTS” in phosphate buffered saline or 5 mg/kg of Photofrin®-II in 5% dextrose. Twenty-four hours after the photosensitizers were administered, the tumors were irradiated with visible radiation delivered by an argon-pumped dye laser. The mice that received a phthalocyanine photosensitizer received light having a wavelength of 675 nm and the mice that received the Photofrin® II photosensitizer received light having a wavelength of 630 nm. Each tumor received 135 J/cm^2 of radiation. Tumor size was measured every day using calipers. The initial tumor volume was 50±10 mm^3. Tumor volume was calculated according to the hemiellipsoid model by the formula: V=½(4π)/3×(½×(w/2))×h
• complete—no evidence of any tumor mass in any animal; only the scar from the photodynamic therapy was evident. • near complete—evidence of […] in four or five animals; only some tumor mass in one or two animals. • substantial—a significant tumor shrinkage occurred in all animals. In some animals the tumor response was complete, yet in others the response was not complete. • moderate—some tumor shrinkage was evident in some animals. In animals with some tumor shrinkage, scar formation was evident. • slight—some tumor decrease occurred in one or two mice.

[2] = system: Chinese hamster V79-379 lung fibroblasts; assay: Clonogenic cell survival of V79 cells after photodynamic treatment; format: cell-based; conditions: for LD 90 (light dosage that kills 90% of cells): 0.5 μM, 18 hours, 675 nm red light, VII# preplated data only, XXI* not totally soluble at 0.5 mM
Procedure: Cells were irradiated at a density of approximately 2×10^6 per 25 cm^2 flask. Immediately after irradiation, the cell monolayer was treated with trypsin, and appropriate aliquots were plated in triplicate to give 100 to 200 colonies in each 10-cm Petri dish. Cell survival was determined by the ability of the cells to form colonies containing at least 50 cells. The response of cells treated with 1 μM AlPcCl and light was compared in each experiment.
Photocytotoxicity of the phthalocyanines compounds I to VI was also assessed by clonogenic assay (Table 1, FIG. 1). In all experiments, 1 μM AlPcCl was included for comparison purposes. From the survival curves (FIG. 1), the fluence reducing the cell survival to 10% (F10) was obtained. The ratio of the F10 for AlPcCl and the F10 for the test compound is recorded in Table 1. Compounds I and II appear to be nearly as efficient photosensitizers as AlPcCl, while compound IV (assayed at half the concentration) was almost twice as efficient as the standard AlPcCl. […] However, in spite of the low efficiency of compound V in inhibiting cell growth, survival measurements were made for this compound, because it was taken up into V79 cells somewhat more efficiently than compounds III and VI.
In order to take differences in cellular uptake into consideration in the assessment of the relative efficiency of these phthalocyanines as photosensitizers of V79 cells, the survival data were replotted against the product of intracellular phthalocyanine concentration and light fluence (FIG. 2). From these curves, the product of intracellular concentration and light fluence reducing survival to 10% (CF10) was obtained, and comparisons of the values for AlPcCl and the test compounds are recorded in Table 1. By this and the other criteria, compound IV appears to be the most efficient photosensitizer. However, when consideration is given to the lesser cell uptake of compound V, it appears to be about as strong a photosensitizer as compound IV.
Using the cell culture methods described above, V79 cells Chinese hamster lung fibroblasts were treated with either 0.5 or 1.0 μM of the phthalocyanines listed in Table 3. About 18 hours thereafter, the cells were irradiated with increasing doses of 675 nm broad band red light from a 500 W tungsten-halogen lamp fitted with a 600 nm high pass filter, to determine the light dosage that would kill 90% of the phthalocyanine treated cells. Where 90% of the cells were not killed, the maximum percent of cells killed were determined, (expressed as % survival) and the related light dosage recorded.

[3] = system: Chinese hamster V79-379 lung fibroblasts; assay: Uptake of phthalocyanines into V79 cells; conditions: for n Moles/10^6 Cells/μM (composite uptake value): V79 cells, average of all data, asterisk: listed value is for 1 μM, average would be higher
Procedure: Chinese hamster V79-379 lung fibroblasts were grown in monolayer culture in McCoy's 5A medium (Gibco Laboratories, Grand Island, N.Y.) augmented with 10% calf serum and buffered with 20 mM HEPES (pH 7.4).
Total uptake was determined by scraping the phthalocyanine-treated monolayer, collecting the cells on a glass-fiber filter, and extracting the phthalocyanine in ethanol, as previously described by Ramakrishnan, et al., 1989. (Ramakrishnan, N., M. E. Clay, M. F. Horng, A. R. Antunez, & H. H. Evans, “DNA Lesions and DNA Degradation in Mouse Lymphoma L5178Y Cells After Photodynamic Treatment Sensitized by Chloroaluminum Phthalocyanine”, Photochem. Photobiol, in press, 1989). The amount of drug was determined by absorption at 674 nm and expressed relative to the number of cells, as measured in a Coulter cell counter on an aliquot of the cell population. Controls included cells not treated with drug, medium alone, and drug-containing medium without cells.
The cells were treated with 1 μM AlPcCl (from Eastman Kodak, Rochester, N.Y.) or with phthalocyanine compositions I-VI (0.5-1.0 μM final concentration in the medium) for 18 hours by adding the appropriate volume of a 1.0 mM stock solution in dimethylformamide (DMF) to the culture medium. The growth medium was replaced with 4 mL Hank's balanced salt solution (HBSS), and the cells were irradiated. The light source was a 500 W tungsten-halogen lamp located approximately 29 inches below the surface of a glass exposure tray. The visible light administered to the cells was filtered to allow passage of only that portion of the visible spectrum above 600 nm (Lee Primary red filter No. 106, Vincent Lighting, Cleveland, Ohio). The fluence rate was approximately 0.074 kJ/m^2/s at the level of the cell monolayer.
V79 cells Chinese hamster lung fibroblasts were cultured using the cell culture methods described above. The phthalocyanines listed in table 2 were added to the cultures typically at concentrations of 1 μM, 2 μM, and/or 4 μM and incubated for 18 hours, after which aliquots of the cells were counted and other aliquots were collected on a glass fiber filter. When the filters were dry, the phthalocyanines were extracted into ethanol and the absorption determined at the peak wavelength, usually 668 nm. Values were converted to nmoles taken up by 10^6 cells, using an extinction coefficient of 2.93×10^5.

L5178Y cells = assay: Induction of apoptosis (DNA ladder) in L5178Y cells after PDT; format: cell-based, Mouse; conditions: for C × F Ld90, Minimum Demonstrated Condition to Induce Apoptosis: product of concentration and fluence
Procedure: The aliquots were plated in sufficient numbers to produce 50-200 colonies. The dishes were kept in an incubator at 37° C. in an atmosphere of 5% CO2 and 95% air for 10-14 days to allow viable cells to form colonies. Colonies were counted by eye. […] The plating efficiencies of the treated cells are normalized to the plating efficiencies of control cells in each experiment.
Cells were treated with various concentrations of the compounds listed in the table and various light fluences. DNA gels were prepared and examined for the characteristic “ladder” pattern of DNA fragments. For each Pc, the minimum total PDT dose tested (calculated as the product of the minimum phthalocyanine concentration and the minimum fluence) which produced visible DNA fragments is recorded. […] PcXVIII was also added at 0.5 and 1.0 μM.

[4] = system: Mouse lymphoma L5178y-R cells; assay: Clonogenic cell survival of PDT-treated LY-R cells; format: cell-based; conditions: 0.5 μM
Procedure: Mouse lymphoma L5178y-R (hereinafter also referred to as “LY-R”) cells were grown in suspension culture as described in Ramakrishnan N., Oleinick, N. L. Clay, M. E., Homg, M. F., Antunez, A. R., and Evans H. H., Photochem. Photobiol. 50, 373-378, 1989 and Agarwal, M. L., Clay, M. E., Harvey, E. J., Evans, H. H., Antunez, A. R., and Oleinick, N. L., Cancer Res., 51, 5993-5996, 1991.
The cells were used while in exponential growth. Stock solutions of either 0.5 or 1 mM of PcIV, PcXII, PcX, PcXVIII were prepared in dimethylformamide unless otherwise indicated and added to the 10 mL medium at a rate of 1 μL per mL. After allowing 18 hours for uptake of the phthalocyanine into the cells, the flasks containing the cultures were placed on a glass exposure tray above a 500-W tungsten-halogen lamp. The exposure tray was fitted with a 600-nm high-pass filter. Flasks were exposed to various fluences of red light (up to 30 kJ/m^2) at a fluence rate of approximately 74 W/m^2). After irradiation, the cells were collected by centrifugation.
For measurement of clonogenic cell survival, aliquots were plated in medium containing soft agar as described in Ramakrishnan N., Oleinick, N. L. Clay, M. E., Homg, M. F., Antunez, A. R., and Evans H. H., Photochem. Photobiol. 50, 373-378, 1989. The aliquots were plated in sufficient numbers to produce 50-200 colonies. The dishes were kept in an incubator at 37° C. in an atmosphere of 5% CO2 and 95% air for 10-14 days to allow viable cells to form colonies. Colonies were counted by eye. Controls treated with the phthalocyanine alone had plating efficiencies of about […]. The plating efficiencies of the treated cells are normalized to the plating efficiencies of control cells in each experiment. For measurement of the induction of apoptosis, DNA was isolated from the treated and control cells 2 hours after photodynamic therapy, subjected to electrophoresis on 1.5% agarose, stained with ethidium bromide, and visualized by UV transillumination, as described in Agarwal et al. The results are shown in Tables 4, 5 and 6 and in FIG. 3.

[5] = 5 mg/kg in phosphate buffered saline, 135 J/cm^2

In the case of “chloroaluminum phthalocyanine tetrasulfonate [AlPcTS, reference compound]”, the “Tumor Responses at 24 hours” value [1, 5] is reported as “substantial” and the “Doubling Time of Initial Tumor Volume after PDT” value [1, 5] is reported as 7 days.
With `CN1CCN(CCC[Si](C)(C)O[Si]2(O)n3c4c5ccccc5c3N=C3N=C(N=c5c6ccccc6c(n52)=NC2=NC(=N4)c4ccccc42)c2ccccc23)CC1` (stereo not shown) [Compound XXVIII, HOSiPcOSi(CH3)2(CH2)3NC4H8NCH3] the “LD 90 (light dosage that kills 90% of cells)” value [2] was 1.8 kj/m^2, the “Tumor Responses at 24 hours” value ([1]; 1 mg/kg in corn oil, 135 J/cm^2, light 24 h after dosing) was “complete” and the “Doubling Time of Initial Tumor Volume after PDT” value ([1]; 1 mg/kg in corn oil, 135 J/cm^2) was 24 days. For the same molecule, the “Uptake Into V79 Cells, 1 μM” value ([3]; 18 hours) was 1.2 ± 0.2 n Moles/10^6 cells, the “Uptake Into V79 Cells, 2 μM” value ([3]; 2 μM, 18 hours) was 3.6 ± 1.0 n Moles/10^6 cells and the “Uptake Into V79 Cells, 4 μM” value ([3]; 18 hours) was 11.4 ± 0.05 n Moles/10^6 cells. For the same molecule, the “n Moles/10^6 Cells/μM (composite uptake value)” value (from here on “n Moles/10^6 Cells/μM”) [3] was 1.2* n Moles/10^6 Cells/μM, the “Fluence, Minimum Demonstrated Condition to Induce Apoptosis” value (“Fluence, Minimum Demonstrated Condition” below) (L5178Y cells; 0.3 μM) was 3.0 kJ/m^2 and the “C × F Ld90, Minimum Demonstrated Condition to Induce Apoptosis” value (shortened to “C × F Ld90”) (L5178Y cells; 0.3 μM) was 0.9 kJ/m^2.
In the case of `CCN(CCC[Si](C)(C)O[Si]1(O)n2c3c4ccccc4c2N=C2N=C(N=c4c5ccccc5c(n41)=NC1=NC(=N3)c3ccccc31)c1ccccc12)CCN(C)C` (stereo not shown) [Compound X, HOSiPcOSi(CH3)2(CH2)3N(CH2CH3)(CH2)2N(CH3)2], the “LD 90 (light dosage that kills 90% of cells)” value [2] is reported as 7 kj/m^2, the “Ld50 (fluence that reduces cell survival to 50%)” value [4] is reported as 2.38 kJ/m^2 and the “Ld90 (fluence that reduces cell survival to 10%)” value [4] is reported as 4.19 kJ/m^2. The “activity relative to PcXII” value ([4]; from LD50/LD90 fluences) was 44%, the “normalized plating efficiency, AVG.” value ([4]; light dose 0 kJ/m^2) was 100 and the “normalized plating efficiency, AVG.” value ([4]; light dose 2 kJ/m^2) was 71.8. For the same molecule, the “normalized plating efficiency, AVG.” value ([4]; light dose 3 kJ/m^2) was 30.1, the “normalized plating efficiency, AVG.” value ([4]; light dose 4 kJ/m^2) was 20.5 and the “normalized plating efficiency, AVG.” value ([4]; light dose 5 kJ/m^2) was 0.43. For the same molecule, the “normalized plating efficiency, AVG.” value ([4]; light dose 6 kJ/m^2) was 0.031, the “normalized plating efficiency, AVG.” value ([4]; light dose 8 kJ/m^2) was 0.00058 and the “Uptake Into V79 Cells, 1 μM” value ([3]; 18 hours) was 0.6 ± 0.2 n Moles/10^6 cells. The “Uptake Into V79 Cells, 4 μM” value ([3]; 18 hours) was 3.3 ± 1.4 n Moles/10^6 cells, the “n Moles/10^6 Cells/μM” value [3] was 0.7 n Moles/10^6 Cells/μM and the “Fluence, Minimum Demonstrated Condition” value (L5178Y cells; 0.5 μM) was 6.0 kJ/m^2. For the same molecule, the “C × F Ld90” value (L5178Y cells; 0.5 μM) was 3.0 kJ/m^2, the “Fluence, Minimum Demonstrated Condition” value (L5178Y cells; 1.0 μM) was 3.0 kJ/m^2 and the “C × F Ld90” value (L5178Y cells; 1.0 μM) was 3.0 kJ/m^2.
`CCN(CC)c1ccc2c(c1)Oc1cc(N(CC)CC)ccc1C21c2ccccc2C(=O)N1CCCC[Si](C)(C)O[Si]1(O[Si](C)(C)C(C)(C)C)n2c3c4ccccc4c2N=C2N=C(N=c4c5ccccc5c(n41)=NC1=NC(=N3)c3ccccc31)c1ccccc12` (stereo not shown) [Compound XV, (CH3)3C(CH3)2SiOSiPcOSi(CH3)2(CH2)4NCOC27H30N2O] was tested, and the “Maximum Effect (% survival at kj/m^2)” value ([2]; 4 μM, at 20 kj/m^2) was 81% at 20, the “Uptake Into V79 Cells, 1 μM” value ([3]; 18 hours) was 0.01 ± 0.01 n Moles/10^6 cells and the “Uptake Into V79 Cells, 4 μM” value ([3]; 18 hours) was 0.14 ± 0.12 n Moles/10^6 cells. For the same molecule, the “n Moles/10^6 Cells/μM” value [3] was less than 0.05 n Moles/10^6 Cells/μM and the induction of apoptosis (L5178Y cells; 1 μM at a fluence of 30 kJ/m^2) was “did not induce apoptosis”.
